Patent US4760023A, “[21-leucine] human urogastrone, corresponding gene, corresponding recombinant plasmid, transformed cell and process for production thereof” (Wakunaga Seiyaku Kabushiki Kaisha, priority 1983, dated 1988)

Legend:
mouse 3T3 cells [1] = assay: Bioassay of activity stimulating thymidine incorporation; format: cell-based; details: for 3H-Thymidine In-take Amount cpm: 18 hours; for 3H-Thymidine In-take Amount Δcpm: minus no addition
Experimental: Incorporation of thymidine was determined according to a modification of the method of Aharon Aharonov et al [J.B.C., 253, 3970 (1978)] and the method of Jimenez de Asua et al [PNAS, 72, 2724 (1975)]. More specifically, 6×10^3 of mouse 3T3 cells were seeded in 0.5 ml of 5% FBS-DME medium in a multi-well dish, and culturing was done for 5 days to grow as monolayers to sub-confluency. The medium was removed, and the cells were washed with PBS, and 0.5 ml of 0.5% FBS-DME medium was added. Incubation was done overnight. Then, 0.5 ml of 0.5% FBS-DME medium containing [21-L] hUG at a predetermined concentration or mEGF was added, and incubation was further continued for 18 hours. Then, 200 nci of [^3 H]-thymidine was added, and incubation was carried out at 55° C. for 30 minutes. The cells were washed twice with cold HBSS containing 20 mM Hepes (pH 7.4) and washed twice with 5% TCA. Then, 200 μl of 1N NaOH was added, and incubation was carried out at 55° C. for 30 minutes to dissolve DNA. Then, 50 μl of the DNA solution was taken and 25 μl of 2N HCl was added for neutralization. The radio-activity of Thymidine was measured by means of a liquid scintillation counter.

KB cell EGF receptor = target: T1, KB cell EGF receptor (Homo sapiens, UniProt P00533); assay: Radioreceptor assay (RRA) using KB cells, competition with 125I-mEGF; format: binding; details: FIG. 2
T1 construct: endogenous in cells; host or cells: KB cells (ATCC No. CCL17), intact cells in suspension
Experimental: RRA of [21-L] hUG was carried out using KB cells (ATCC No. CCL17) derived from a human nasopharyngeal epidermoid carcinoma in the light of the process of A. King et al [see J.B.C., 257, 3053 (1982)]. More specifically, monolayer culturing was carried out in DME medium in a 800-ml flask. The culture medium was removed, and cells were peeled with a phosphate buffer salt solution (PBS) containing 0.05% of EDTA to prepare a cell suspension. Then, the cells were washed 2 times with Hank's balanced salt solution (HBSS) containing 20 mM Hepes (pH 7.4). Then, the cells were suspended in a binding solution (DME medium, 20 mM Hepes, pH 7.4, 0.35 g/l of NaHCO3 and 100 μg/ml of Streptomycin), and the cell number was calculated and the cell density was adjusted to from 300,000 to 400,000 per 0.2 ml of the binding solution. The suspension was poured into tubes (0.2 ml in each tube), and 0.2 ml each of sample containing [21-L] hUG and ^125 I-mEGF (mouse EGF) at various concentrations were added into the tubes, respectively. Incubation was carried out at 37° C. for 1 hour. The cells were washed 3 times with ice-cold HBSS and suspended in 10% TCA, and the cells were separated from the solution by filtration through a glass filter. TCA was removed with acetone, and counting of radioactivity associated with the cells was performed by using a scintillation counter. […]

[2] = system: ulcer caused by ligation of the pylorus; assay: Inhibitory effect on generation of stomach ulcer (pylorus ligation); format: in vivo, rats of the Wister strain; details: rat
Experimental: The inhibitory effect of [21-L] hUG on generation of ulcer was examined on the basis of the activity of EGF of anti-gastric acid secretion [Gut, 16, 887 (1975)].
7-weeks-old male rats of the Wister strain were bred and caused to fast for 24 hours before ligation of the pylorus. The pylorus was ligated for 17 hours, and ulcer was caused by fasting and abstinence from drinking. The peptide fraction containing [21-L] hUG (corresponding to 500 μg of the protein) or physiological saline as a control was hypodermically injected 30 minutes before ligation of the pylorus. Each group tested consisted of 5 rats, and the anti-ulcer action was evaluated by calculating the ulcer index. More specifically, the long and short diameters of the olcerous erosion generated by ligation of the pylorus were measured under an anatomical microscope, and the sum of products of the long and short diameters per rat was defined as the ulcer coefficient.

mouse 3T3 cells [3] = assay: Bioassay of activity promoting proliferation of mouse 3T3 cells (viable cell count); format: cell-based; details: 4 days, 0.5% FBS-DME, FIG. 3
Experimental: The activity of promoting proliferation of cells was determined by the following procedure. More specifically, monolayer culturing of mouse 3T3 cells was carried out in a 25-cm^2 flask, and the cells were treated with calcium- and magnesium-free HBSS (CMF-HBSS) containing 0.02% of EDTA and 0.05% of trypsin to prepare cell suspensions. The cells were washed with CMF-HBSS and resuspended in DME medium containing 0.5% of fetal bovine serum (FBS), and the number of viable cells was counted. The cell suspension was diluted with 0.5% FBS-DME medium so that the cell number was 2×10^4 per ml. Then, 1 ml of the cell suspension was seeded per 35 mm dish and incubation was carried out overnight in a CO2 incubator. Peptide fractions containing different concentrations of [21-L] hUG and mEGF as a control were dissolved in 0.5% FBS-DME medium and the mixtures were filtered by a Millipore filter (type GV, wpo 2500), and 1 ml aliquots of the mixtures were added to the above cell suspension. Incubation was carried out for 4 days in a CO2 incubator (5% CO2 -95% air, 37° C.). Viable cells were stained with Trypan Blue, and the number of the viable cells was counted using a counting chamber. […]

mouse 3T3 cell = target: T2, mouse 3T3 cell (Mus musculus, UniProt Q01279); assay: RRA using mouse 3T3 cell; format: binding
T2 construct: endogenous in cells; host or cells: mouse 3T3 cells
Experimental: RPA using mouse 3T3 cell was carried out according to the process of C.

For “[21-leucine] human urogastrone (NSDSECPLSHDGYCLHDGVCLYIEALDKYACNCVVGYIGERCQYRDLKWWELR; Epidermal growth factor; UniProt P01133 971-1023, looked up, variant M21L) [[21-L] hUG, 53-residue polypeptide, same as hUG except that the 21st amino acid is Leu; produced in E. coli, released by cyanogen bromide]”, the “3H-Thymidine In-take Amount cpm” value (mouse 3T3 cells [1]; 0.73 μg/ml) was 17,170.8 cpm, the “3H-Thymidine In-take Amount Δcpm” value (mouse 3T3 cells [1]; 0.73 μg/ml) was 12,531.3 cpm and the “3H-Thymidine In-take Amount cpm” value (mouse 3T3 cells [1]; 1.46 μg/ml) was 11,761.7 cpm. The “3H-Thymidine In-take Amount Δcpm” value (mouse 3T3 cells [1]; 1.46 μg/ml) was 7,122.2 cpm, the “3H-Thymidine In-take Amount cpm” value (mouse 3T3 cells [1]; 2.93 μg/ml) was 13,567.0 cpm and the “3H-Thymidine In-take Amount Δcpm” value (mouse 3T3 cells [1]; 2.93 μg/ml) was 8,927.5 cpm. For the same substance, the “thymidine incorporation (in words)” value (mouse 3T3 cells [1]; mouse 3T3 cells) was “promotes greatly thymidine incorporation”, the “inhibition of binding of 125I-mEGF to the KB cell EGF receptor” value (KB cell EGF receptor; 37° C., 1 hour) was “competitively inhibits binding” and the “dosage-response curve in RRA compared with mEGF” value (KB cell EGF receptor) was “in good agreement with that of mEGF”. For the same substance, the “Ulcer Coefficient” value ([2]; 500 μg of the protein hypodermically 30 minutes before ligation, pylorus ligated 17 hours) was 44.5 ± 18.0 mm^2, the “generation of the ulcer (in words)” value ([2]; pylorus ligation) was “tends to inhibit generation of the ulcer” and the “dose-response curve of cell proliferation compared with mEGF” value (mouse 3T3 cells [3]) was “in good agreement with the curve for mEGF”. For the same substance, the “RRA result using mouse 3T3 cell” value (mouse 3T3 cell) was “results similar to the results obtained in RRA using KB cell”.
With “mouse epidermal growth factor (NSYPGCPSSYDGYCLNGGVCMHIESLDSYTCNCVIGYSGDRCQTRDLRWWELR; not fully specified; Epidermal growth factor; UniProt P01132 977-1029, looked up) [mEGF, mEGF (Toyobo, Japan), used for comparison]” the “3H-Thymidine In-take Amount cpm” value (mouse 3T3 cells [1]; 1 ng/ml) was 14,510.5 cpm, the “3H-Thymidine In-take Amount Δcpm” value (mouse 3T3 cells [1]; 1 ng/ml) was 9,871.0 cpm and the “3H-Thymidine In-take Amount cpm” value (mouse 3T3 cells [1]; 2 ng/ml) was 13,387.4 cpm. For the same substance, the “3H-Thymidine In-take Amount Δcpm” value (mouse 3T3 cells [1]; 2 ng/ml) was 8,747.9 cpm, the “3H-Thymidine In-take Amount cpm” value (mouse 3T3 cells [1]; 5 ng/ml) was 14,695.2 cpm and the “3H-Thymidine In-take Amount Δcpm” value (mouse 3T3 cells [1]; 5 ng/ml) was 10,055.7 cpm. The “3H-Thymidine In-take Amount cpm” value (mouse 3T3 cells [1]; 10 ng/ml) was 14,094.6 cpm and the “3H-Thymidine In-take Amount Δcpm” value (mouse 3T3 cells [1]; 10 ng/ml) was 9,455.1 cpm.
